# Columns and labels:
# Type in all cases: functional
# Conditions in all cases: values are per cent of control
# SNB-19 = test: Antiproliferative activity against human SNB19 cells at 10 uM assessed as cell growth inhibition relative to control
# SF-295 = test: Antiproliferative activity against human SF295 cells at 10 uM assessed as cell growth inhibition relative to control
# SK-MEL-28 = test: Antiproliferative activity against human SK-MEL-28 cells at 10 uM assessed as cell growth inhibition relative to control
# COLO 205 = test: Antiproliferative activity against human COLO205 cells at 10 uM assessed as cell growth inhibition relative to control
# HCT-15 = test: Antiproliferative activity against human HCT15 cells at 10 uM assessed as cell growth inhibition relative to control
# SW-620 = test: Antiproliferative activity against human SW620 cells at 10 uM assessed as cell growth inhibition relative to control
# MOLT-4 = test: Antiproliferative activity against human MOLT4 cells at 10 uM assessed as cell growth inhibition relative to control
# M14 = test: Antiproliferative activity against human M14 cells at 10 uM assessed as cell growth inhibition relative to control
# OVCAR-8 = test: Antiproliferative activity against human OVCAR8 cells at 10 uM assessed as cell growth inhibition relative to control
# [1] = Antiproliferative activity against human […] cells at 10 uM assessed as cell growth inhibition relative to control
# SK-OV-3 = test: Antiproliferative activity against human SKOV3 cells at 10 uM assessed as cell growth inhibition relative to control
# OVCAR-5 = test: Antiproliferative activity against human OVCAR5 cells at 10 uM assessed as cell growth inhibition relative to control
# NCI-H23 = test: Antiproliferative activity against human NCI-H23 cells at 10 uM assessed as cell growth inhibition relative to control
# UO-31 = test: Antiproliferative activity against human UO31 cells at 10 uM assessed as cell growth inhibition relative to control
# OVCAR-4 = test: Antiproliferative activity against human OVCAR4 cells at 10 uM assessed as cell growth inhibition relative to control
# OVCAR-3 = test: Antiproliferative activity against human OVCAR-3 cells at 10 uM assessed as cell growth inhibition relative to control
# RXF 393 = test: Antiproliferative activity against human RXF393 cells at 10 uM assessed as cell growth inhibition relative to control
# UACC-62 = test: Antiproliferative activity against human UACC62 cells at 10 uM assessed as cell growth inhibition relative to control
# T47D = test: Antiproliferative activity against human T47D cells at 10 uM assessed as cell growth inhibition relative to control
# NCI-H460 = test: Antiproliferative activity against human NCI-H460 cells at 10 uM assessed as cell growth inhibition relative to control
# HOP-62 = test: Antiproliferative activity against human HOP62 cells at 10 uM assessed as cell growth inhibition relative to control
# IGROV-1 = test: Antiproliferative activity against human IGROV1 cells at 10 uM assessed as cell growth inhibition relative to control
# SK-MEL-2 = test: Antiproliferative activity against human SK-MEL-2 cells at 10 uM assessed as cell growth inhibition relative to control
# SK-MEL-5 = test: Antiproliferative activity against human SK-MEL-5 cells at 10 uM assessed as cell growth inhibition relative to control
# BT-549 = test: Antiproliferative activity against human BT549 cells at 10 uM assessed as cell growth inhibition relative to control
# LOX IMVI = test: Antiproliferative activity against human LOXIMVI cells at 10 uM assessed as cell growth inhibition relative to control
# NCI-H522 = test: Antiproliferative activity against human NCI-H522 cells at 10 uM assessed as cell growth inhibition relative to control
# SF-539 = test: Antiproliferative activity against human SF539 cells at 10 uM assessed as cell growth inhibition relative to control
# DU-145 = test: Antiproliferative activity against human DU145 cells at 10 uM assessed as cell growth inhibition relative to control
# Malme-3M = test: Antiproliferative activity against human MALME-3M cells at 10 uM assessed as cell growth inhibition relative to control
# CCRF-CEM = test: Antiproliferative activity against human CCRF-CEM cells at 10 uM assessed as cell growth inhibition relative to control
# KM12 = test: Antiproliferative activity against human KM12 cells at 10 uM assessed as cell growth inhibition relative to control
# CAKI-1 = test: Antiproliferative activity against human Caki1 cells at 10 uM assessed as cell growth inhibition relative to control
# UACC-257 = test: Antiproliferative activity against human UACC257 cells at 10 uM assessed as cell growth inhibition relative to control
# SNB-75 = test: Antiproliferative activity against human SNB75 cells at 10 uM assessed as cell growth inhibition relative to control
# A549 = test: Antiproliferative activity against human A549 cells at 10 uM assessed as cell growth inhibition relative to control
# TK-10 = test: Antiproliferative activity against human TK10 cells at 10 uM assessed as cell growth inhibition relative to control
# HL-60(TB) = test: Antiproliferative activity against human HL-60(TB) cells at 10 uM assessed as cell growth inhibition relative to control
# SF-268 = test: Antiproliferative activity against human SF268 cells at 10 uM assessed as cell growth inhibition relative to control
# HOP-92 = test: Antiproliferative activity against human HOP92 cells at 10 uM assessed as cell growth inhibition relative to control
# HCT-116 = test: Antiproliferative activity against human HCT116 cells at 10 uM assessed as cell growth inhibition relative to control
# [2] = Antiproliferative activity against human Hs 578T cells at 10 uM assessed as cell growth inhibition relative to control
# PC-3 = test: Antiproliferative activity against human PC3 cells at 10 uM assessed as cell growth inhibition relative to control
# MDA-MB-231 = test: Antiproliferative activity against human MDA-MB-231 cells at 10 uM assessed as cell growth inhibition relative to control
# 786-0 = test: Antiproliferative activity against human 786-0 cells at 10 uM assessed as cell growth inhibition relative to control
# K562 = test: Antiproliferative activity against human K562 cells at 10 uM assessed as cell growth inhibition relative to control
# NCI-H226 = test: Antiproliferative activity against human NCI-H226 cells at 10 uM assessed as cell growth inhibition relative to control
# ACHN = test: Antiproliferative activity against human ACHN cells at 10 uM assessed as cell growth inhibition relative to control
# EKVX = test: Antiproliferative activity against human EKVX cells at 10 uM assessed as cell growth inhibition relative to control
# HCC 2998 = test: Antiproliferative activity against human HCC2998 cells at 10 uM assessed as cell growth inhibition relative to control
# MCF7 = test: Antiproliferative activity against human MCF7 cells at 10 uM assessed as cell growth inhibition relative to control
# MDA-MB-468 = test: Antiproliferative activity against human MDA-MB-468 cells at 10 uM assessed as cell growth inhibition relative to control
# NCI-H322M = test: Antiproliferative activity against human NCI-H322M cells at 10 uM assessed as cell growth inhibition relative to control
# SN12C = test: Antiproliferative activity against human SN12C cells at 10 uM assessed as cell growth inhibition relative to control
# A498 = test: Antiproliferative activity against human A498 cells at 10 uM assessed as cell growth inhibition relative to control
# U-251 = test: Antiproliferative activity against human U251 cells at 10 uM assessed as cell growth inhibition relative to control
# HT-29 = test: Antiproliferative activity against human HT-29 cells at 10 uM assessed as cell growth inhibition relative to control
compound,measurement,setting,value
CCOC(=O)C=C1[C@@H](O[Si](C)(C)C(C)(C)C)[C@H](n2cnc3c(N)ncnc32)O[C@@H]1CNC(=O)NC,"growth, % of control at 10 µM",SNB-19,88%
same,"growth, % of control at 10 µM",SF-295,88%
same,"growth, % of control at 10 µM",SK-MEL-28,111%
same,"growth, % of control at 10 µM",COLO 205,76%
same,"growth, % of control at 10 µM",HCT-15,90%
same,"growth, % of control at 10 µM",SW-620,88%
same,"growth, % of control at 10 µM",MOLT-4,75%
same,"growth, % of control at 10 µM",M14,87%
same,"growth, % of control at 10 µM",OVCAR-8,104%
same,"growth, % of control at 10 µM",[1],81%
same,"growth, % of control at 10 µM",SK-OV-3,102%
same,"growth, % of control at 10 µM",OVCAR-5,88%
same,"growth, % of control at 10 µM",NCI-H23,99%
same,"growth, % of control at 10 µM",UO-31,76%
same,"growth, % of control at 10 µM",OVCAR-4,71%
same,"growth, % of control at 10 µM",OVCAR-3,65%
same,"growth, % of control at 10 µM",RXF 393,105%
same,"growth, % of control at 10 µM",UACC-62,79%
same,"growth, % of control at 10 µM",T47D,79%
same,"growth, % of control at 10 µM",NCI-H460,110%
same,"growth, % of control at 10 µM",HOP-62,99%
same,"growth, % of control at 10 µM",IGROV-1,46%
same,"growth, % of control at 10 µM",SK-MEL-2,94%
same,"growth, % of control at 10 µM",SK-MEL-5,75%
same,"growth, % of control at 10 µM",BT-549,80%
same,"growth, % of control at 10 µM",LOX IMVI,74%
same,"growth, % of control at 10 µM",NCI-H522,74%
same,"growth, % of control at 10 µM",SF-539,92%
same,"growth, % of control at 10 µM",DU-145,71%
same,"growth, % of control at 10 µM",Malme-3M,105%
same,"growth, % of control at 10 µM",CCRF-CEM,119%
same,"growth, % of control at 10 µM",KM12,60%
same,"growth, % of control at 10 µM",CAKI-1,85%
same,"growth, % of control at 10 µM",UACC-257,95%
same,"growth, % of control at 10 µM",SNB-75,98%
same,"growth, % of control at 10 µM",A549,100%
same,"growth, % of control at 10 µM",TK-10,85%
same,"growth, % of control at 10 µM",HL-60(TB),76%
same,"growth, % of control at 10 µM",SF-268,98%
same,"growth, % of control at 10 µM",HOP-92,90%
same,"growth, % of control at 10 µM",HCT-116,52%
same,"growth, % of control at 10 µM",[2],107%
same,"growth, % of control at 10 µM",PC-3,93%
same,"growth, % of control at 10 µM",MDA-MB-231,81%
same,"growth, % of control at 10 µM",786-0,77%
same,"growth, % of control at 10 µM",K562,84%
same,"growth, % of control at 10 µM",NCI-H226,90%
same,"growth, % of control at 10 µM",ACHN,70%
same,"growth, % of control at 10 µM",EKVX,86%
same,"growth, % of control at 10 µM",HCC 2998,71%
same,"growth, % of control at 10 µM",MCF7,94%
same,"growth, % of control at 10 µM",MDA-MB-468,71%
same,"growth, % of control at 10 µM",NCI-H322M,81%
same,"growth, % of control at 10 µM",SN12C,90%
same,"growth, % of control at 10 µM",A498,78%
same,"growth, % of control at 10 µM",U-251,53%
same,"growth, % of control at 10 µM",HT-29,65%

# — ChEMBL document CHEMBL1154382, “Preliminary SAR analysis of novel antiproliferative N(6),5'-bis-ureidoadenosine derivatives” (2009)
